Assay results taken from US5994361A, “Substituted purinyl derivatives with immunomodulating activity” (priority 1995, dated 1999).

Assays:
[1] = Body weight, compound #1 with Cytoxan 28 mg/kg (Example 94); format: in vivo, Balb/c mice; set-up: body weight: unit not given here
Procedure: (§1) In another experiment, the CTX treatment was prolonged. Balb/c mice were injected s.c. with 5×10^5 DA-3 tumor cells at day 0. At day 4 when established tumors appeared, tumor-bearing animals were randomized (n=11/gr.) and injected with CTX (at 28 mg/kg) i.v. bolus injections at days 4, 11, and 18. […]

blood cells [2] = assay: Immunophenotyping on blood cells, combination with cyclophosphamide; format: in vivo, C57/BLJ6 mice; details: cyclophosphamide 100 mg/kg alone, N = 4
Procedure: (§2) After in vivo drugs analysis, the drugs were evaluated on whole blood for drug stability and toxicity. Furthermore, in vivo/ex vivo analysis was performed on normal and cyclophosphamide immunosuppressed animals plus 5Fu-treated animals. Cell immunophenotyping was performed on mouse-treatedblood and spleen. The following cell surface antigens were analyzed:
(§3) CD3 (all T cells), CD4 (T helper/inducer, binds class II-restricted T cells), CD8a (cytotoxic T cells, CTL adhesion), CD11a (T, B, NK, some stem cells, CTL adhesion anti LFA-1α), MAC-1 (monocyte/macrophage), NK (natural killer cells), Ly5 (B cells), CD45 (all leukocytes, protein tyrosine phosphates), and TCR (T cell receptor).
(§4) C57/BLJ6 mice (6-8 weeks old) were injected daily for 4 consecutive days, sacrificed at day 5 and immunophenotyping was performed on blood and spleen cells.
(§5) The cells were washed twice in PBS, resuspended in 1 ml of RPMI 2% FBS, and incubated for 45 min. on ice with monoclonal antibody. The cells were washed once, fixed with 1% paraformaldehyde, then analyzed using XL Coulter® counter.

DA-3 mammary carcinoma [3] = assay: Tumor outgrowth of breast carcinoma, with cyclophosphamide (Example 92); format: in vivo, Balb/C mice; details: CY 100 mg/kg
Procedure: Balb/C Mice (n-5/Gr) were used along with DA-3 mammary carcinoma cell line. The mice were treated from -2 to 13 days. Animals were monitored for tumor takes/tumor size and body weights for three weeks from Day 0 until Day 21. D0 was the day of tumor cell inoculation and D21 was the day of experiment termination.
(§6) Parameters of effect were measured by inhibition of tumor outgrowth and growth rate [tumors measured along the longest axis (length) and the perpendicular shortest axis (width) and the tumor volumes (T.V.±S.E.) was calculated by the formula T.V.=length (cm)×(width cm)^2 /2.] assessment of body weight loss.
The statistical significance of difference between tumor takes and tumor sizes of control-untreated and drug-treated groups is estimated using the Chi-square and Student's t tests respectively with significance determined at n<0.05.
The mice were divided into the following 5 groups:
Gr.1--Normal Saline (0.2 ml/mouse i.p. starting at D2)
Gr.2--CY (100 mg/kg single bolus i.v. at D0)
Gr.3--Compound #1 (25 mg/kg i.p. starting at D2)
Gr.4--Compound #1 (50 mg/kg i.p. starting at D2)
Gr.5--CY (100 mg/kg i.v. at D0+compound #1 50 mg/kg i.p. starting at D2)

DA-3 mammary carcinoma [4] = assay: Compound #1 with Cytoxan 28 mg/kg against DA-3 mammary carcinoma, tumor sizes (Example 94); format: in vivo, Balb/c mice; set-up: key: tumor volume = length × width²/2
Procedure: as §6, §1

[5] = cited from earlier work
immune system = details: prior art; cited from earlier work
virus = details: cited from earlier work
spleen cells = assay: Immunophenotyping on spleen cells, combination with 5 Fluorouracil; format: in vivo, C57/BLJ6 mice; details: 5 FU 80 mg/kg alone, N = 4
Procedure: as §2, §3, §4, §5

[6] = test system: MC38 colon adenocarcinoma; assay: Compound #1 with 5FU against colon adenocarcinoma (Example 95); format: in vivo, C57/BL mice
Procedure: C57/BL mice 6-8 weeks old (n=7-9/gr) were injected with 3×10^5 MC38 colon adenocarcinoma cells s.c. on day 0. On day 7, tumor-bearing mice were randomized and injected with 5FU at 20 mg/kg either alone or in combination with levamisole at 20 mg/kg i.p. or with compound #1 at 25 and 50 mg/kg i.p. over a four week period. During this period, animals were treated for 5 consecutive days, untreated for 2 days, and treated again for 5 consecutive days per week for 4 weeks.

blood cells [7] = assay: Immunophenotyping on blood cells, combination with 5 Fluorouracil; format: in vivo, C57/BLJ6 mice; details: 5 FU 80 mg/kg alone, N = 4
Procedure: as §2, §3, §4, §5

[8] = single agent (CTX 28 mg/kg days 4, 11, 18, or BCH-1393 50 mg/kg days 3-28), day 4
[9] = single agent (CTX 28 mg/kg or BCH-1393 50 mg/kg), day 7
[10] = single agent (CTX 28 mg/kg or BCH-1393 50 mg/kg), day 9
[11] = single agent (CTX 28 mg/kg or BCH-1393 50 mg/kg), day 11
[12] = single agent (CTX 28 mg/kg or BCH-1393 50 mg/kg), day 14
[13] = single agent (CTX 28 mg/kg or BCH-1393 50 mg/kg), day 16
[14] = single agent (CTX 28 mg/kg or BCH-1393 50 mg/kg), day 18
[15] = single agent (CTX 28 mg/kg or BCH-1393 50 mg/kg), day 21
[16] = single agent (CTX 28 mg/kg or BCH-1393 50 mg/kg), day 23
[17] = single agent (CTX 28 mg/kg or BCH-1393 50 mg/kg), day 25
[18] = single agent (CTX 28 mg/kg or BCH-1393 50 mg/kg), day 28
[19] = single agent (CTX 28 mg/kg or BCH-1393 50 mg/kg), day 30

O=P1(N(CCCl)CCCl)NCCCO1 (stereo not shown) [cyclophosphamide, reference compound]
body weight [1, 8]: 19.2 | body weight [1, 9]: 19.8 | body weight [1, 10]: 19.8 | body weight [1, 11]: 19.9 | body weight [1, 12]: 19.2 | body weight [1, 13]: 19.7 | body weight [1, 14]: 19.6 | body weight [1, 15]: 19.8 | body weight [1, 16]: 19.7 | body weight [1, 17]: 20.1 | body weight [1, 18]: 20.3 | body weight [1, 19]: 20.4 | CP8+ CD45+ (mean) (blood cells [2]): 15.05 | Tumor takes (DA-3 mammary carcinoma [3]; day 4): 5/5 | Tumor takes (DA-3 mammary carcinoma [3]; day 6): 5/5 | Tumor takes (DA-3 mammary carcinoma [3]; day 8): 5/5 | Tumor takes (DA-3 mammary carcinoma [3]; day 10): 5/5 | tumor size (DA-3 mammary carcinoma [4]; [8]): 4.2 | tumor size (DA-3 mammary carcinoma [4]; [9]): 10.5 | tumor size (DA-3 mammary carcinoma [4]; [10]): 18.6 | tumor size (DA-3 mammary carcinoma [4]; [11]): 30.7 | tumor size (DA-3 mammary carcinoma [4]; [12]): 50.6 | tumor size (DA-3 mammary carcinoma [4]; [13]): 54.5 | tumor size (DA-3 mammary carcinoma [4]; [14]): 63.4 | tumor size (DA-3 mammary carcinoma [4]; [15]): 88.5 | tumor size (DA-3 mammary carcinoma [4]; [16]): 93.4 | tumor size (DA-3 mammary carcinoma [4]; [17]): 106.3 | tumor size (DA-3 mammary carcinoma [4]; [18]): 130.9 | tumor size (DA-3 mammary carcinoma [4]; [19]): 151.6

Nc1nc2c(sc(=O)n2[C@@H]2O[C@H](CO)[C@@H](O)[C@H]2O)c(=O)[nH]1 [7-thia-8-oxoguanosine]
oral bioavailability [5]: lack of oral bioavailability | immunomodulating activity (immune system): activate NK and B cells in the immune system, and to induce interferon | antiviral results (virus; humans): few encouraging results

O=c1[nH]cc(F)c(=O)[nH]1 [5 FU, 5-fluorouracil, reference compound]
CD4+ CD45- (mean) (spleen cells): 10.0 | NK+ (mean) (spleen cells): 4.22 | anti-tumor response ([6]; 5FU 20 mg/kg alone): moderate anti-tumor response | CD8+ CD45+ (mean) (blood cells [7]): 6.66 | NK+ (mean) (blood cells [7]): 3.24

Nc1nc2c(ccn2[C@@H]2O[C@H](CO)[C@@H](O)[C@H]2O)c(=O)[nH]1 [7-deazaguanosine]
immunostimulatory and antiviral activity (virus; after oral administration, preliminary): significant immunostimulatory and antiviral activity after oral administration

c1ccc([C@H]2CN3CCSC3=N2)cc1 [Levamisole, levamisole]
adverse effect ([5]; adjuvant levamisole therapy for malignant melanoma): induces serious thrombocytopenia | anti-tumor response ([6]; 5FU 20 mg/kg plus Levamisole 20 mg/kg): moderate anti-tumor response
